No end group written: not given here. *: point of attachment. Cholyl = C[C@H](CCC(=O)*)[C@H]1CC[C@H]2[C@@H]3[C@H](O)C[C@@H]4C[C@H](O)CC[C@]4(C)[C@H]3C[C@H](O)[C@]12C
Experiments:
GII.3 human norovirus = conditions: host intestinal cells; free bile acids; cited from earlier work
B3Z cells [1] = assay: Antigen-presentation assay using the B3Z reporter system, BMDCs as antigen presenting cells; format: cell-based, mouse; conditions: for antigen-presentation activity of cholic acid-NLS peptide conjugate (B3Z response OD570): BMDCs as antigen presenting cells, mixed with OVA at best conjugate:antigen ratio, FIGS. 3-5; for antigen cross-presentation (B3Z response) compared with OVA alone: BMDCs, molar ratio (bile acid/peptide/conjugate):antigen 4:1, mixed with OVA, FIG. 2
Text: For this experiment, BMDCs were used as the antigen presenting cells (n=6) and the molar ratio (bile acid/peptide/conjugate): antigen was 4:1. Controls tested included no antigen (“PBS”), antigen alone (“OVA alone”), unconjugated NLS peptide (“SV40NLS”), unconjugated cholic acid mixed with OVA (“CA”), and the positive control peptide SIINFEKL (SEQ ID NO: 9) mixed with OVA (“SIINFEKL”). The dashed line represents the signal obtained with OVA alone. Bile acids: cholic acid (CA); glycodeoxycholic acid (GDCA); glycochenodeoxycholic acid (GCDCA); ursodeoxycholic acid (UDCA); and lithocholic acid (LCA).
The dashed line represents the signal obtained with OVA alone. The readout was taken after 24 h of incubation and error bars represent SD (n=6). For this experiment, BMDCs were used as the antigen presenting cells.
The dashed line represents the signal obtained with OVA alone. Readout was taken after 24 h of incubation from a single experiment. The molar ratio of CA-peptide conjugate: OVA was 22:1. For this experiment, BMDCs were used as the antigen presenting cells.
For this experiment, BMDCs were used as the antigen presenting cells. The dashed line represents the signal obtained with OVA alone. Readout was taken after 24 h of incubation from a single experiment. The molar ratio of CA-peptide conjugate: OVA was as follows: CA-GWG-SV40NLS (12:1); CA-hnRNP M NLS (12:1); CA-NLS2-RPS17 NLS (22:1); CA-HuR NLS (22:1); CA-cMyc NLS (2:1); CA-NLS3-RPS17 NLS (22:1); CA-NLS2-RG-RPS17 NLS (2:1); CA-PQBP1 NLS (8:1); CA-hnRNPA1 M9 NLS (22:1); and CA-SV40 NLS (2:1).
(§1) Various bile acid-NLS conjugates were screened using the B3Z reporter system. The B3Z cell line is a T-cell hybridoma specific for the H2-K^b-SIINFEKL complex. Once activated via its TCR, the LacZ reporter gene (under the NFAT promoter control) is expressed. Briefly, 1.5×10^5 BMDCs or 2.5×10^5 MSCs were co-cultured with 5×10^4 B3Z cells treated with the mixing conditions of ovalbumin (OVA) and bile acid-NLS conjugates for overnight at 37° C. with 5% CO2. The following day, all cells were washed twice with PBS (pH 7.4), and the cell pellets were lysed by adding 100 μL of a lysis buffer containing 0.15 mM chlorophenol red-beta-D-galactopyranoside (CPRG) substrate (Calbiochem, La Jolla, Calif.), 0.125% NP40 (EMD Sciences, La Jolla, Calif.), 9 mM MgCl2 (Aldrich, USA) and 100 mM 2-mercaptoethanol in PBS. After a 5- or 24-h incubation at 37° C., absorbance was taken at 570 nm with 636 nm as the reference wavelength. For these experiments, OVA was re-suspended in PBS (pH 7.3) at 5-10 mg/mL. The different bile acid-NLS conjugates were re-suspended in H2O at 10 mg/mL. Bile acid-NLS conjugate: antigen mixtures were prepared at different molar ratios according to Table 2.
Variants of CA-SV40NLS were synthesized in order to explore structure-activity relationships relating to the antigen cross-presentation enhancing activity observed for this conjugate. More particularly, conjugates having different bile acids conjugated to the SV40NLS peptide (SEQ ID NO: 1) were synthesized and their effect on antigen presentation was evaluated by using the B3Z reporter system with the OVA antigen as described in Example 1. […] In FIG. 2, no increase in antigen cross-presentation over the antigen alone (“OVA”) was observed when OVA was mixed with either unconjugated cholic acid (“CA”) or SV40NLS peptide (“SV40NLS”), although lower sensitivity of the B3Z reporter system as compared to the OT-I CD8 T cell-based assay used in FIG. 1 may have been a factor.
(§2) Further variants of CA-SV40NLS were synthesized in which the SV40NLS peptide was replaced with peptides comprising other NLS's (Table 3) and the antigen presentation activities of the CA-NLS peptide conjugates were evaluated using the B3Z reporter system as described in Example 1. The following conjugate:antigen molar ratios were tested for each conjugate: 2:1, 4:1, 8:1, 12:1 and 22:1. […]

B3Z cells [2] = assay: Antigen-presentation assay using the B3Z reporter system, cross-presenting MSC line as antigen presenting cells; format: cell-based; conditions: compared to OVA alone or OVA mixed with CA-SV40NLS, FIG. 6
Procedure: For this experiment, a cross-presentation mesenchymal stromal cell (MSC) line was used as the antigen presenting cells. The dashed line represents the signal obtained with OVA alone. Readout was taken after 24 h of incubation. The molar ratio of CA-peptide conjugate: OVA was as follows: CA-GWG-SV40NLS (2:1); CA-hnRNP M NLS (8:1); CA-hnRNP D NLS (12:1); CA-NLS2-RG-RPS17 (4:1); CA-cMyc NLS (12:1); CA-HuR NLS (12:1); CA-Tus NLS (2:1); CA-NLS2-RPS17 NLS (4:1); CA-PQBP1 NLS (12:1); CA-hnRNPA1 M9 NLS (2:1); and CA-SV40 NLS (2:1).
as §1, §2

[3] = test system: cross-presenting mesenchymal stromal cell (MSC) line; assay: Antigen internalization: MSC line pulsed with OVA labelled with Alexa Fluor 647, flow cytometry; format: cell-based; conditions: various conjugate:OVA molar ratios, FIGS. 7A-7D
Procedure: FIGS. 7A to 7D show the effect of different NLS peptides on the antigen internalization activity of cholic acid-NLS peptide conjugates. For this experiment, a cross-presenting mesenchymal stromal cell (MSC) line was used as the antigen presenting cells, which were pulsed with OVA labelled with Alexa Fluor 647 (i.e., OVA^647)™. OVA^647 fluorescence was measured by flow cytometry. Different ratios of CA (NLS1 RPS17 [FIG. 7A]; NLS3 RPS17 [FIG. 7B]; PQBP-1 [FIG. 7C]; and hnRNPA1 M9 NLS [FIG. 7D]) to antigen (CA:OVA=22:1, 12:1, 8:1, 4:1, and 2:1) were tested (hnRNPA1 M9 NLS at 2:1).
(§3) To further dissect the effect of bile acid peptide conjugates on antigen presentation, antigen internalization and processing were evaluated. MSC cell lines were pulsed with OVA-labelled with AF647 in the presence of various molar ratios of different bile acid peptide conjugates, NLS1-RPS17 [FIG. 7A]; NLS3 RPS17 [FIG. 7B]; PQBP-1 [FIG. 7C]; and hnRNPA1 M9 NLS [FIG. 7D]) and fluorescence was assessed by flow cytometry. […] OVA processing was assessed by pulsing MSC cell lines with DQ™-Ovalbumin (OVA-DQ) in the presence of the same bile acid peptide conjugates as in FIGS. 7A to 7D.

[4] = test system: cross-presenting mesenchymal stromal cell (MSC) line; assay: Antigen processing: MSC line pulsed with DQ Ovalbumin (OVA-DQ), flow cytometry; format: cell-based; conditions: various conjugate:OVA molar ratios, FIGS. 8A-8D
Procedure: FIGS. 8A to 8D show the effect of different NLS peptides on the antigen processing activity of cholic acid-NLS peptide conjugates. For this experiment, a cross-presenting mesenchymal stromal cell (MSC) line was used as the antigen presenting cells, which were pulsed with DQ™ Ovalbumin (i.e., OVA^DQ). OVA^DQ fluorescence was measured by flow cytometry. Different ratios of CA (NLS1 RSP17 [FIG. 8A]; NLS3 RPS17 [FIG. 8B]; PQBP-1 [FIG. 8C]; and hnRNPA1 M9 NLS [FIG. 8D]) to antigen (CA:OVA=22:1, 12:1, 8:1, 4:1, and 2:1) were tested (hnRNPA1 M9 NLS at 2:1).
as §3

| Compound | antigen-presentation activity of cholic acid-NLS peptide conjugate (B3Z response OD570) (B3Z cells [1]) | OVA internalization (OVA-AF647 fluorescence) [3] | OVA processing (OVA-DQ fluorescence) [4] | also measured |
| --- | --- | --- | --- | --- |
| C[C@H](CCC(=O)NCC(=O)O)[C@H]1CC[C@H]2[C@@H]3[C@H](O)C[C@@H]4C[C@H](O)CC[C@]4(C)[C@H]3C[C@H](O)[C@]12C [GCA, glycocholic acid] | – | – | – | effect on GII.3 human norovirus infection and replication (GII.3 human norovirus): increase GII.3 human norovirus infection and replication |
| C[C@H](CCC(=O)NCC(=O)O)[C@H]1CC[C@H]2[C@@H]3[C@@H](O)C[C@@H]4C[C@H](O)CC[C@]4(C)[C@H]3CC[C@]12C [GUDCA, glycoursodeoxycholic acid] | – | – | – | immunogen enhancer activity (B3Z reporter system) (B3Z cells [1]; GUDCA:OVA molar ratios 2:1, 4:1, 8:1, 12:1 and 22:1): observed at all GUDCA:OVA molar ratios tested; increase in B3Z response (OD570) over the OVA alone (B3Z cells [1]; unconjugated GUDCA mixed with OVA, 22:1, data not shown): ≤ 30% |
| C[C@H](CCC(=O)NCCS(=O)(=O)O)[C@H]1CC[C@H]2[C@@H]3[C@H](O)C[C@@H]4C[C@H](O)CC[C@]4(C)[C@H]3C[C@H](O)[C@]12C [TCA, taurocholic acid] | – | – | – | effect on GII.3 human norovirus infection and replication (GII.3 human norovirus): increase GII.3 human norovirus infection and replication |
| CA-GWG-SV40NLS: cholic acid conjugated to peptide CGWWGYGPKKKRKVGGWWG (SEQ ID NO: 3) (also: cholic acid conjugate, site not given here) | higher antigen-presentation activity than SV40NLS | – | – | antigen-presentation activity of cholic acid-NLS peptide conjugate (B3Z response OD570) (B3Z cells [2]): strikingly high antigen-presentation activity |
| CA-HuR NLS: cholic acid conjugated to peptide CGRFSPMGVDHMSGLSGVNVPG (SEQ ID NO: 13) (also: cholic acid conjugate, site not given here) | high antigen presentation activity | – | – | antigen-presentation activity of cholic acid-NLS peptide conjugate (B3Z response OD570) (B3Z cells [2]): strikingly high antigen-presentation activity |
| CA-NLS2-RG-RPS17 NLS: cholic acid conjugated to NLS2-RG Domain RPS17 peptide (SEQ ID NO: 11) (CNKRVCEEIAIIPSKKLRNKGSGRIQRGPVRGIS; cysteine pairing not given here; also: cholic acid conjugate, site not given here) | high antigen presentation activity | – | – | – |
| CA-NLS3-RPS17 NLS: cholic acid conjugated to peptide SKKLRNKIAGYVTHLMKRI (SEQ ID NO: 8) (also: cholic acid conjugate, site not given here) | high antigen presentation activity | enhance OVA internalization | enhance OVA processing | – |
| CA-PQBP1 NLS: cholic acid conjugated to peptide CADREEGKERRHHRREELAPY (SEQ ID NO: 6) (also: cholic acid conjugate, site not given here) | strikingly high antigen-presentation activity | enhance OVA internalization | enhance OVA processing | antigen-presentation activity of cholic acid-NLS peptide conjugate (B3Z response OD570) (B3Z cells [2]): strikingly high antigen-presentation activity |
| CA-SV40NLS: cholic acid conjugated to the N-terminal cysteine amino group of 13-mer peptide CGYGPKKKRKVGG (SEQ ID NO: 1) (Cholyl-CGYGPKKKRKVGG) | – | – | – | antigen cross-presentation (B3Z response) compared with OVA alone (B3Z cells [1]): increased antigen cross-presentation |
| CA-cMyc NLS: cholic acid conjugated to peptide CGYGPAAKRVKLDGG (SEQ ID NO: 12) (also: cholic acid conjugate, site not given here) | high antigen presentation activity | – | – | – |
| CA-hnRNPA1 M9 NLS: cholic acid conjugated to peptide CSNFGPMKGGNFGGRSSGPY (SEQ ID NO: 4) (also: cholic acid conjugate, site not given here) | – | enhance OVA internalization | enhance OVA processing | – |
| NLS1-RPS17: cholic acid conjugated to peptide CMGRVRTKTVKKAAGG (SEQ ID NO: 15) (also: cholic acid conjugate, site not given here) | – | enhance OVA internalization | enhance OVA processing | – |
| SV40NLS: unconjugated NLS peptide CGYGPKKKRKVGG (SEQ ID NO: 1) (SV40NLS) [reference compound] | – | – | – | antigen cross-presentation (B3Z response) compared with OVA alone (B3Z cells [1]): no increase |

From US11612651B2, “Steroid acid-based immunogen enhancers” (priority 2021, dated 2023)
